# Measured values reported in the NIST ThermoML archive (doi:10.1021/je800243y).
# Numbers after ± are expanded uncertainties.
# Test: molar heat capacity at constant pressure
# Conditions: 101.33 kPa, Crystal, Large sample (1 g) DSC
molar heat capacity at constant pressure (298.15 K),molar heat capacity at constant pressure (303.15 K),molar heat capacity at constant pressure (308.15 K),molar heat capacity at constant pressure (313.15 K),molar heat capacity at constant pressure (318.15 K),molar heat capacity at constant pressure (323.15 K),molar heat capacity at constant pressure (328.15 K),molar heat capacity at constant pressure (333.15 K),molar heat capacity at constant pressure (338.15 K),molar heat capacity at constant pressure (343.15 K),molar heat capacity at constant pressure (348.15 K),molar heat capacity at constant pressure (353.15 K),molar heat capacity at constant pressure (358.15 K),molar heat capacity at constant pressure (363.15 K),molar heat capacity at constant pressure (368.15 K),Structure (SMILES)
263.41 ± 5.3 J/K/mol,266.16 ± 5.3 J/K/mol,268.9 ± 5.4 J/K/mol,271.65 ± 5.4 J/K/mol,274.39 ± 5.5 J/K/mol,277.14 ± 5.5 J/K/mol,279.89 ± 5.6 J/K/mol,282.63 ± 5.7 J/K/mol,285.38 ± 5.7 J/K/mol,288.12 ± 5.8 J/K/mol,290.86 ± 5.8 J/K/mol,293.6 ± 5.9 J/K/mol,296.36 ± 5.9 J/K/mol,299.1 ± 6 J/K/mol,301.84 ± 6 J/K/mol,O=c1ccn([C@H]2C[C@H](O)[C@@H](CO)O2)c(=O)[nH]1 [2'-deoxyuridine]
285.34 ± 5.7 J/K/mol,287.61 ± 5.8 J/K/mol,289.88 ± 5.8 J/K/mol,292.15 ± 5.8 J/K/mol,294.43 ± 5.9 J/K/mol,296.69 ± 5.9 J/K/mol,298.96 ± 6 J/K/mol,301.22 ± 6 J/K/mol,303.48 ± 6.1 J/K/mol,305.76 ± 6.1 J/K/mol,308.02 ± 6.2 J/K/mol,310.3 ± 6.2 J/K/mol,312.55 ± 6.2 J/K/mol,314.82 ± 6.3 J/K/mol,317.09 ± 6.3 J/K/mol,O=c1[nH]c(=O)n([C@H]2C[C@H](O)[C@@H](CO)O2)cc1I [5-iodo-2'-deoxyuridine]
260.65 ± 5.2 J/K/mol,263.37 ± 5.3 J/K/mol,266.08 ± 5.3 J/K/mol,268.8 ± 5.4 J/K/mol,271.51 ± 5.4 J/K/mol,274.23 ± 5.5 J/K/mol,276.94 ± 5.5 J/K/mol,279.66 ± 5.6 J/K/mol,282.38 ± 5.7 J/K/mol,285.09 ± 5.7 J/K/mol,287.81 ± 5.8 J/K/mol,290.52 ± 5.8 J/K/mol,293.24 ± 5.9 J/K/mol,295.95 ± 5.9 J/K/mol,298.66 ± 6 J/K/mol,O=c1[nH]c(=O)n([C@H]2C[C@H](O)[C@@H](CO)O2)cc1Br [5-bromo-2'-deoxyuridine]

# Second part, the compound before the results:
Structure (SMILES),molar heat capacity at constant pressure (298.15 K),molar heat capacity at constant pressure (303.15 K),molar heat capacity at constant pressure (308.15 K),molar heat capacity at constant pressure (313.15 K),molar heat capacity at constant pressure (318.15 K),molar heat capacity at constant pressure (323.15 K),molar heat capacity at constant pressure (328.15 K),molar heat capacity at constant pressure (333.15 K),molar heat capacity at constant pressure (338.15 K),molar heat capacity at constant pressure (343.15 K),molar heat capacity at constant pressure (348.15 K),molar heat capacity at constant pressure (353.15 K),molar heat capacity at constant pressure (358.15 K),molar heat capacity at constant pressure (363.15 K),molar heat capacity at constant pressure (368.15 K)
O=c1[nH]c(=O)n([C@@H]2O[C@H](CO)[C@@H](O)[C@H]2O)cc1Br [5-bromouridine],305.69 ± 6.1 J/K/mol,306.16 ± 6.1 J/K/mol,306.64 ± 6.1 J/K/mol,307.11 ± 6.1 J/K/mol,307.58 ± 6.2 J/K/mol,308.05 ± 6.2 J/K/mol,308.52 ± 6.2 J/K/mol,308.99 ± 6.2 J/K/mol,309.47 ± 6.2 J/K/mol,309.94 ± 6.2 J/K/mol,310.41 ± 6.2 J/K/mol,310.88 ± 6.2 J/K/mol,311.35 ± 6.2 J/K/mol,311.82 ± 6.2 J/K/mol,312.29 ± 6.2 J/K/mol
"O=c1[nH]c(=O)n([C@@H]2O[C@H](CO)[C@@H](O)[C@H]2O)cc1I [2,4-dihdroxy-5-iodo-1-β-D-ribofurnosylpyrimidine]",337.43 ± 6.8 J/K/mol,338.14 ± 6.8 J/K/mol,338.86 ± 6.8 J/K/mol,339.57 ± 6.8 J/K/mol,340.29 ± 6.8 J/K/mol,341 ± 6.8 J/K/mol,341.72 ± 6.8 J/K/mol,342.43 ± 6.8 J/K/mol,343.15 ± 6.9 J/K/mol,343.86 ± 6.9 J/K/mol,344.58 ± 6.9 J/K/mol,345.29 ± 6.9 J/K/mol,346.01 ± 6.9 J/K/mol,346.72 ± 6.9 J/K/mol,347.44 ± 7 J/K/mol
Cc1cn([C@H]2C[C@H](O)[C@@H](CO)O2)c(=O)[nH]c1=O [thymidine],276.7 ± 5.5 J/K/mol,278.84 ± 5.6 J/K/mol,280.97 ± 5.6 J/K/mol,283.12 ± 5.7 J/K/mol,285.25 ± 5.7 J/K/mol,287.4 ± 5.8 J/K/mol,289.53 ± 5.8 J/K/mol,291.68 ± 5.8 J/K/mol,293.81 ± 5.9 J/K/mol,295.95 ± 5.9 J/K/mol,298.09 ± 6 J/K/mol,300.23 ± 6 J/K/mol,302.37 ± 6 J/K/mol,304.51 ± 6.1 J/K/mol,306.65 ± 6.1 J/K/mol
